Consider ten molecules from US20120053053A1, “PYRIMIDINE DERIVATIVES AND THEIR USE AS HERBICIDES” (SYNGENTA CROP PROTECTION, LLC, priority 2009, published 2012).

Type in all cases: in vivo
The test system of assay [1] is Amaranthus retoflexus (AMARE). The assay can be described thus: Pre-emergence biological efficacy (percentage damage). Particulars: Amaranthus retroflexus, 312 h, dose 1,000 g/ha, evaluated after 13 days, 100=total damage, 0=no damage. Put shortly:
(§1)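 Visual injury on a 0–100 scale was recorded 13 days after a spray giving 250 or 1000 g/ha of compound, applied one day post-sowing.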

Assay [2] concerns Alopecurus myosuroides (ALOMY). The assay is described as above. Particulars: Alopecurus myosuroides, 312 h, dose 1,000 g/ha, evaluated after 13 days, 100=total damage, 0=no damage. Put shortly: as §1
Assay [3] deals with Ipomea hederaceae (IPOHE). Described as above. To be noted: Ipomoea hederacea, 312 h, dose 1,000 g/ha, evaluated after 13 days, 100=total damage, 0=no damage. Put shortly: as §1
Assay [4] relates to Echinochloa crus-galli (ECHCG). The assay is described as above. Particulars: Echinochloa crus-galli, 312 h, dose 1,000 g/ha, evaluated after 13 days, 100=total damage, 0=no damage. Put shortly:
as §1

In assay [5] the test system is Solanum nigrum (SOLNI). The description is as above. To be noted: Solanum nigrum, 312 h, dose 1,000 g/ha, evaluated after 13 days, 100=total damage, 0=no damage. Put shortly:
as §1

For assay [6], the system named is Setaria faberi (SETFA). The assay is described as above. To be noted: Setaria faberi, 312 h, dose 1,000 g/ha, evaluated after 13 days, 100=total damage, 0=no damage. Summed up: as §1
For assay [7], the system named is Amaranthus retoflexus (AMARE). The assay can be described thus: Post-emergence biological efficacy (percentage damage). To be noted: Amaranthus retroflexus, 312 h, dose 1,000 g/ha, evaluated after 13 days, 100=total damage, 0=no damage. Summed up: (§2)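 Percentage damage (0 no damage to 100 total) was assessed 13 days after spraying plants raised for 8 days in pots. Test compound was applied as an aqueous acetone/water (50:50) spray containing 0.5% Tween 20 to give 250 or 1000 g/ha.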

In assay [8] the test system is Alopecurus myosuroides (ALOMY). The description is as above. Particulars: Alopecurus myosuroides, 312 h, dose 1,000 g/ha, evaluated after 13 days, 100=total damage, 0=no damage. Summed up: as §2
In assay [9] the test system is Ipomea hederaceae (IPOHE). Described as above. To be noted: Ipomoea hederacea, 312 h, dose 1,000 g/ha, evaluated after 13 days, 100=total damage, 0=no damage. Put shortly:
as §2

Assay [10] deals with Echinochloa crus-galli (ECHCG). The assay is described as above. Particulars: Echinochloa crus-galli, 312 h, dose 1,000 g/ha, evaluated after 13 days, 100=total damage, 0=no damage. Put shortly:
as §2

The test system of assay [11] is Solanum nigrum (SOLNI). Described as above. To be noted: Solanum nigrum, 312 h, dose 1,000 g/ha, evaluated after 13 days, 100=total damage, 0=no damage. Summed up:
as §2

Assay [12] deals with Setaria faberi (SETFA). Described as above. To be noted: Setaria faberi, 312 h, dose 1,000 g/ha, evaluated after 13 days, 100=total damage, 0=no damage. Put shortly: as §2

Each structure is given as a SMILES string.

As to `C=Cc1c(N)nc(-c2ccc(Cl)c(C(F)(F)F)c2)nc1C(=O)OC` [Compound 14-61, 4-Amino-2-(4-chloro-3-trifluoromethyl-phenyl)-5-ethenyl-6-methoxycarbonyl-pyrimidine], the pest or weed control at 1000 g/ha in [1] stood at 60%; in assay [2], 10%; in [3] it was 10%; in [4], 20%; with Solanum nigrum (SOLNI) [5] it was 40%; in the assay on Setaria faberi (SETFA) [6] it was 10%. Further, the pest or weed control at 1000 g/ha in assay [7] is 10%; in assay [8] it was 0%; in [9], 40%; in assay [10], 0%; with Solanum nigrum (SOLNI) [11], 80%; in the assay on Setaria faberi (SETFA) [12], 0%.

For the molecule `C=Cc1c(N)nc(-c2ccc(Cl)cc2F)nc1C(=O)OC` [Compound 15-61, 4-Amino-2-(4-chloro-2-fluorophenyl)-5-ethenyl-6-methoxycarbonyl-pyrimidine], the pest or weed control at 1000 g/ha in [1] came to 100%; in [2] it was 80%; in [3], 100%; in assay [4], 70%; in the assay with Solanum nigrum (SOLNI) [5], 100%; with Setaria faberi (SETFA) [6], 70%. Moreover, the pest or weed control at 1000 g/ha in assay [7] is 100%; in assay [8] it was 90%; in assay [9] it was 80%; in assay [10], 70%; in the assay with Solanum nigrum (SOLNI) [11] it was 100%; with Setaria faberi (SETFA) [12], 70%.

With `C=Cc1c(N)nc(-c2ccc(Cl)c(F)c2)nc1C(=O)OC` [Compound 19-61, 4-Amino-2-(4-chloro-3-fluorophenyl)-5-ethenyl-6-methoxycarbonyl-pyrimidine], the pest or weed control at 1000 g/ha in assay [1] amounted to 100%; in assay [2] it was 50%; in assay [3], 100%; in assay [4] it was 70%; in the assay with Solanum nigrum (SOLNI) [5], 100%; with Setaria faberi (SETFA) [6] it was 30%. Besides, the pest or weed control at 1000 g/ha is 100% in assay [7]; 40% in [8]; 100% in assay [9]; 60% in assay [10]; 100% with Solanum nigrum (SOLNI) [11]; 40% in the assay with Setaria faberi (SETFA) [12].

`C=Cc1c(N)nc(-c2ccc(Cl)c(OC)c2)nc1C(=O)OC` [Compound 26-61, 4-Amino-2-(4-chloro-3-methoxyphenyl)-5-ethenyl-6-methoxycarbonyl-pyrimidine]: the pest or weed control at 1000 g/ha in assay [1] stood at 100%; in assay [2] it was 0%; in assay [3] it was 20%; in assay [4], 0%; in the assay with Solanum nigrum (SOLNI) [5], 80%; in the assay with Setaria faberi (SETFA) [6], 0%. In addition, the pest or weed control at 1000 g/ha in assay [7] came to 100%; in assay [8], 50%; in assay [9], 70%; in assay [10] it was 60%; in the assay with Solanum nigrum (SOLNI) [11] it was 80%; in the assay on Setaria faberi (SETFA) [12], 0%.

As for `C=Cc1c(N)nc(-c2ccc(Cl)c(OC)c2F)nc1C(=O)O` [Compound 27-21, 4-amino-2-(4-chloro-2-fluoro-3-methoxyphenyl)-5-ethenylpyrimidine-6-carboxylic acid], the pest or weed control at 1000 g/ha in assay [1] is 100%; in assay [2] it was 90%; in assay [3], 100%; in [4], 100%; in the assay with Solanum nigrum (SOLNI) [5], 100%; in the assay on Setaria faberi (SETFA) [6] it was 100%. The pest or weed control at 1000 g/ha is 100% in assay [7]; 90% in [8]; 90% in assay [9]; 90% in assay [10]; 90% in the assay with Solanum nigrum (SOLNI) [11]; 100% in the assay with Setaria faberi (SETFA) [12].

`COC(=O)c1nc(-c2ccc(Cl)c(OC)c2F)nc(N)c1C` [Compound 27-41]: the pest or weed control at 1000 g/ha in assay [1] worked out at 50%; in [2], 30%; in assay [3], 90%; in assay [4] it was 20%; with Solanum nigrum (SOLNI) [5] it was 80%; in the assay with Setaria faberi (SETFA) [6], 10%. The pest or weed control at 1000 g/ha in assay [7] is 100%; in assay [8], 30%; in [9] it was 60%; in assay [10], 50%; in the assay on Solanum nigrum (SOLNI) [11], 80%; with Setaria faberi (SETFA) [12], 80%.

As to `COC(=O)c1nc(-c2ccc(Cl)c(OC)c2F)nc(N)c1C(C)=O` [Compound 27-53, 4-Amino-2-(4-chloro-2-fluoro-3-methoxy-phenyl)-6-methoxycarbonyl-5-methylcarbonyl-pyrimidine], the pest or weed control at 1000 g/ha in [1] worked out at 90%; in assay [2], 20%; in [3], 100%; in [4], 20%; with Solanum nigrum (SOLNI) [5] it was 100%; in the assay on Setaria faberi (SETFA) [6], 10%. Besides, the pest or weed control at 1000 g/ha in assay [7] came out at 100%; in [8] it was 30%; in assay [9], 60%; in assay [10], 30%; in the assay on Solanum nigrum (SOLNI) [11], 90%; in the assay with Setaria faberi (SETFA) [12] it was 40%.

`C=Cc1c(N)nc(-c2ccc(Cl)c(OC)c2F)nc1C(=O)OC` [Compound 27-61, 4-Amino-2-(4-chloro-2-fluoro-3-methoxyphenyl)-5-ethenyl-6-methoxycarbonyl-pyrimidine]: the pest or weed control at 1000 g/ha in assay [1] turned out to be 100%; in [2], 90%; in assay [3], 90%; in assay [4] it was 90%; with Solanum nigrum (SOLNI) [5], 100%; in the assay with Setaria faberi (SETFA) [6], 90%. The pest or weed control at 1000 g/ha in assay [7] was 100%; in [8], 90%; in [9] it was 80%; in assay [10] it was 90%; in the assay with Solanum nigrum (SOLNI) [11], 80%; in the assay with Setaria faberi (SETFA) [12] it was 100%.

In the case of `C=C(C)c1c(N)nc(-c2ccc(Cl)c(OC)c2F)nc1C(=O)OC` [Compound 27-63, 4-Amino-2-(4-chloro-2-fluoro-3-methoxyphenyl)-6-methoxycarbonyl-5-(prop-1-en-2-yl)-pyrimidine], the pest or weed control at 1000 g/ha worked out at 100% in assay [1]; 50% in [2]; 100% in [3]; 80% in assay [4]; 100% in the assay on Solanum nigrum (SOLNI) [5]; 50% with Setaria faberi (SETFA) [6]. Further, the pest or weed control at 1000 g/ha in assay [7] came to 100%; in [8], 60%; in [9], 90%; in assay [10], 70%; in the assay with Solanum nigrum (SOLNI) [11], 90%; with Setaria faberi (SETFA) [12], 90%.

With `C=C(OCC)c1c(N)nc(-c2ccc(Cl)c(OC)c2F)nc1C(=O)OC` [Compound 27-67], the pest or weed control at 1000 g/ha in assay [1] turned out to be 30%; in assay [2], 20%; in assay [3] it was 40%; in assay [4], 20%; in the assay on Solanum nigrum (SOLNI) [5] it was 100%; in the assay with Setaria faberi (SETFA) [6], 10%. In addition, the pest or weed control at 1000 g/ha in [7] is 40%; in assay [8], 0%; in assay [9] it was 60%; in assay [10] it was 10%; in the assay with Solanum nigrum (SOLNI) [11], 80%; in the assay with Setaria faberi (SETFA) [12], 10%.

As a reminder, the pest or weed control is how far the test organism was held down. The low end stands for a weak effect, the high end for a strong effect.
